Measured values as given in US12052991B2, “Substituted pyridinyloxybenzenes and salts thereof and use thereof as herbicidal agents” (Bayer Aktiengesellschaft, priority 2018, dated 2024).

Key:
Format in all cases: in vivo
[1] = test system: Echinochloa crus-galli (ECHCG); experiment: Herbicidal post-emergence action (Table B1); details: rated visually after about 3 weeks, 100% = plants have died, 0% = like control plants
Outline: (§1)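 Post-emergence spray, one-leaf stage (2–3 wk after sowing), sandy loam, greenhouse. WP/EC in water + 0.5% additive, 600 L/ha, 1280 or 320 g/ha. Visual % activity vs untreated after ~3 wk (0% = like control, 100% = plants dead).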

Lolium rigidum (LOLRI) [2] = experiment: Herbicidal post-emergence action (Table B2); details: rated visually after about 3 weeks, 100% = plants have died, 0% = like control plants
Outline: as §1

Poa annua (POAAN) [3] = experiment: Herbicidal post-emergence action (Table B3); details: rated visually after about 3 weeks, 100% = plants have died, 0% = like control plants
Outline: as §1

Setaria viridis (SETVI) [4] = experiment: Herbicidal post-emergence action (Table B4); details: rated visually after about 3 weeks, 100% = plants have died, 0% = like control plants
Outline: as §1

[5] = test system: Abutilon theophrasti (ABUTH); experiment: Herbicidal post-emergence action (Table B5); details: rated visually after about 3 weeks, 100% = plants have died, 0% = like control plants
Outline: as §1

[6] = test system: Amaranthus retroflexus (AMARE); experiment: Herbicidal post-emergence action (Table B6); details: visual rating about 3 weeks after treatment, 100% = plants have died, 0% = like control plants
Outline: as §1

Stellaria media (STEME) [7] = experiment: Herbicidal post-emergence action (Table B8); details: visual rating about 3 weeks after treatment, 100% = plants have died, 0% = like control plants
Outline: as §1

[8] = test system: Echinochloa crus-galli (ECHCG); experiment: Herbicidal pre-emergence action, test C (Table C1); details: visual scoring after about 3 weeks, 100% = plants have died, 0% = like control plants
Outline: (§2)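 Visual scoring after about 3 weeks in the greenhouse gave % activity relative to untreated controls, 100% meaning plants died. Compounds, as WP or EC with 0.5% additive, had been applied to covering soil at 1280 or 320 g/ha in 600 L/ha water.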

Lolium rigidum (LOLRI) [9] = experiment: Herbicidal pre-emergence action, test C (Table C2); details: visual scoring after about 3 weeks, 100% = plants have died, 0% = like control plants
Outline: as §2

Poa annua (POAAN) [10] = experiment: Herbicidal pre-emergence action, test C (Table C3); details: visual scoring after about 3 weeks, 100% = plants have died, 0% = like control plants
Outline: as §2

Setaria viridis (SETVI) [11] = experiment: Herbicidal pre-emergence action, test C (Table C4); details: visual scoring after about 3 weeks, 100% = plants have died, 0% = like control plants
Outline: as §2

[12] = test system: Abutilon theophrasti (ABUTH); experiment: Herbicidal pre-emergence action, test C (Table C5); details: visual scoring after about 3 weeks, 100% = plants have died, 0% = like control plants
Outline: as §2

[13] = test system: Amaranthus retroflexus (AMARE); experiment: Herbicidal pre-emergence action, test C (Table C6); details: visual scoring after about 3 weeks, 100% = plants have died, 0% = like control plants
Outline: as §2

Stellaria media (STEME) [14] = experiment: Herbicidal pre-emergence action, test C (Table C8); details: visual scoring after about 3 weeks, 100% = plants have died, 0% = like control plants
Outline: as §2

[15] = test system: harmful plants ABUTH, AMARE, ECHCG, LOLRI, MATIN, POAAN, SETVI, STEME, ALOMY, DIGSA, KCHSC and VERPE; experiment: Herbicidal post-emergence action, summary of Tables B1-B12; details: application rate of 1280 or 320 g of active ingredient per hectare; summary in words
Outline: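 Activity scored by eye roughly 3 weeks post-treatment against untreated plants, from 0% (no effect) to 100% (plants dead). Application rates were 1280 or 320 g/ha, as aqueous WP/EC spray plus 0.5% additive at 600 L/ha, onto one-leaf-stage weeds grown 2–3 weeks in sandy loam.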

[16] = test system: harmful plants ABUTH, AMARE, ECHCG, LOLRI, MATIN, POAAN, SETVI, STEME, ALOMY, DIGSA, KCHSC and VERPE; experiment: Herbicidal pre-emergence action (test C), summary of Tables C1-C12; details: application rate of 1280 or 320 g of active ingredient per hectare; summary in words
Outline: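 Visual % damage versus untreated plants (0% = like control, 100% = died) was scored after about 3 weeks in the greenhouse. Before emergence, seeds sown in sandy loam got a soil-surface spray of compound as WP or EC plus 0.5% additive, using 600 L/ha water at rates of 1280 or 320 g/ha.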

Structure (SMILES)	Post-emergence action against Echinochloa crus-galli (ECHCG) ([1]; 320 g/ha) [%]	Post-emergence action against Echinochloa crus-galli (ECHCG) ([1]; 1280 g/ha) [%]	Post-emergence action against Lolium rigidum (LOLRI) (Lolium rigidum (LOLRI) [2]; 1280 g/ha) [%]	Post-emergence action against Poa annua (POAAN) (Poa annua (POAAN) [3]; 320 g/ha) [%]	Post-emergence action against Poa annua (POAAN) (Poa annua (POAAN) [3]; 1280 g/ha) [%]	Post-emergence action against Setaria viridis (SETVI) (Setaria viridis (SETVI) [4]; 1280 g/ha) [%]	Post-emergence action against Abutilon theophrasti (ABUTH) ([5]; 320 g/ha) [%]	Post-emergence action against Abutilon theophrasti (ABUTH) ([5]; 1280 g/ha) [%]	Post-emergence action against Amaranthus retroflexus (AMARE) ([6]; dosage 320 g/ha) [%]	Post-emergence action against Amaranthus retroflexus (AMARE) ([6]; dosage 1280 g/ha) [%]	Post-emergence action against Stellaria media (STEME) (Stellaria media (STEME) [7]; dosage 320 g/ha) [%]	Post-emergence action against Stellaria media (STEME) (Stellaria media (STEME) [7]; dosage 1280 g/ha) [%]	Pre-emergence action against Echinochloa crus-galli (ECHCG) ([8]; dosage 1280 g/ha) [%]	Pre-emergence action against Lolium rigidum (LOLRI) (Lolium rigidum (LOLRI) [9]; dosage 1280 g/ha) [%]	Pre-emergence action against Poa annua (POAAN) (Poa annua (POAAN) [10]; dosage 320 g/ha) [%]	Pre-emergence action against Poa annua (POAAN) (Poa annua (POAAN) [10]; dosage 1280 g/ha) [%]	Pre-emergence action against Setaria viridis (SETVI) (Setaria viridis (SETVI) [11]; dosage 320 g/ha) [%]	Pre-emergence action against Setaria viridis (SETVI) (Setaria viridis (SETVI) [11]; dosage 1280 g/ha) [%]	Pre-emergence action against Abutilon theophrasti (ABUTH) ([12]; dosage 1280 g/ha) [%]	Pre-emergence action against Amaranthus retroflexus (AMARE) ([13]; dosage 320 g/ha) [%]	also measured
FC(F)c1cc(-c2ccccc2Oc2ccc(Cl)cn2)on1 [Example 1-35]	100	100	100	100	100	100	100	100	100	100	100	100	100	90	100	100	100	100	100	100	Pre-emergence action against Abutilon theophrasti (ABUTH) ([12]; dosage 320 g/ha): 100%; Pre-emergence action against Amaranthus retroflexus (AMARE) ([13]; dosage 1280 g/ha): 100%; Pre-emergence action against Stellaria media (STEME) (Stellaria media (STEME) [14]; dosage 320 g/ha): 100%; Pre-emergence action against Stellaria media (STEME) (Stellaria media (STEME) [14]; dosage 1280 g/ha): 100%; herbicidal activity against the harmful plants of Tables B1-B12 in post-emergence treatment [15]: very good herbicidal activity; herbicidal activity against the harmful plants of Tables C1-C12 in pre-emergence treatment [16]: very good herbicidal activity
Fc1cccc(Oc2ccc(Cl)cn2)c1-c1cc(C(F)F)no1 [Example 1-17]	100	100	100	100	100	100	100	100	100	100	100	100	100	100	100	100	100	100	100	100	Post-emergence action against Lolium rigidum (LOLRI) (Lolium rigidum (LOLRI) [2]; 320 g/ha): 100%; Post-emergence action against Setaria viridis (SETVI) (Setaria viridis (SETVI) [4]; 320 g/ha): 100%; Pre-emergence action against Echinochloa crus-galli (ECHCG) ([8]; dosage 320 g/ha): 90%; Pre-emergence action against Lolium rigidum (LOLRI) (Lolium rigidum (LOLRI) [9]; dosage 320 g/ha): 100%; Pre-emergence action against Abutilon theophrasti (ABUTH) ([12]; dosage 320 g/ha): 100%; Pre-emergence action against Amaranthus retroflexus (AMARE) ([13]; dosage 1280 g/ha): 100%; Pre-emergence action against Stellaria media (STEME) (Stellaria media (STEME) [14]; dosage 320 g/ha): 100%; Pre-emergence action against Stellaria media (STEME) (Stellaria media (STEME) [14]; dosage 1280 g/ha): 100%; herbicidal activity against the harmful plants of Tables B1-B12 in post-emergence treatment [15]: very good herbicidal activity; herbicidal activity against the harmful plants of Tables C1-C12 in pre-emergence treatment [16]: very good herbicidal activity
Fc1cccc(Oc2ccc(Br)cn2)c1-c1cc(C(F)F)no1 [Example 1-40]	100	100	100	100	100	100	100	100	100	100	100	100	100	100	100	100	100	100	100	100	Post-emergence action against Lolium rigidum (LOLRI) (Lolium rigidum (LOLRI) [2]; 320 g/ha): 100%; Post-emergence action against Setaria viridis (SETVI) (Setaria viridis (SETVI) [4]; 320 g/ha): 100%; Pre-emergence action against Echinochloa crus-galli (ECHCG) ([8]; dosage 320 g/ha): 100%; Pre-emergence action against Lolium rigidum (LOLRI) (Lolium rigidum (LOLRI) [9]; dosage 320 g/ha): 90%; Pre-emergence action against Abutilon theophrasti (ABUTH) ([12]; dosage 320 g/ha): 100%; Pre-emergence action against Amaranthus retroflexus (AMARE) ([13]; dosage 1280 g/ha): 100%; Pre-emergence action against Stellaria media (STEME) (Stellaria media (STEME) [14]; dosage 320 g/ha): 100%; Pre-emergence action against Stellaria media (STEME) (Stellaria media (STEME) [14]; dosage 1280 g/ha): 100%; herbicidal activity against the harmful plants of Tables B1-B12 in post-emergence treatment [15]: very good herbicidal activity; herbicidal activity against the harmful plants of Tables C1-C12 in pre-emergence treatment [16]: very good herbicidal activity
Fc1cc(Cl)cnc1Oc1ccccc1-c1cc(C(F)F)no1 [Example 1-36]	100	100	100	100	100	100	100	100	100	100	100	100	100	90	100	100	100	100	100	100	Pre-emergence action against Amaranthus retroflexus (AMARE) ([13]; dosage 1280 g/ha): 100%; Pre-emergence action against Stellaria media (STEME) (Stellaria media (STEME) [14]; dosage 320 g/ha): 100%; Pre-emergence action against Stellaria media (STEME) (Stellaria media (STEME) [14]; dosage 1280 g/ha): 100%; herbicidal activity against the harmful plants of Tables B1-B12 in post-emergence treatment [15]: very good herbicidal activity; herbicidal activity against the harmful plants of Tables C1-C12 in pre-emergence treatment [16]: very good herbicidal activity
Fc1cc(Cl)cnc1Oc1cccc(F)c1-c1cc(C(F)F)no1 [Example 1-19]	100	100	100	100	100	100	100	100	100	100	100	100	100	100	100	100	100	100	100	100	Post-emergence action against Lolium rigidum (LOLRI) (Lolium rigidum (LOLRI) [2]; 320 g/ha): 100%; Post-emergence action against Setaria viridis (SETVI) (Setaria viridis (SETVI) [4]; 320 g/ha): 100%; Pre-emergence action against Echinochloa crus-galli (ECHCG) ([8]; dosage 320 g/ha): 100%; Pre-emergence action against Lolium rigidum (LOLRI) (Lolium rigidum (LOLRI) [9]; dosage 320 g/ha): 100%; Pre-emergence action against Abutilon theophrasti (ABUTH) ([12]; dosage 320 g/ha): 100%; Pre-emergence action against Amaranthus retroflexus (AMARE) ([13]; dosage 1280 g/ha): 100%; Pre-emergence action against Stellaria media (STEME) (Stellaria media (STEME) [14]; dosage 320 g/ha): 100%; Pre-emergence action against Stellaria media (STEME) (Stellaria media (STEME) [14]; dosage 1280 g/ha): 100%; herbicidal activity against the harmful plants of Tables B1-B12 in post-emergence treatment [15]: very good herbicidal activity; herbicidal activity against the harmful plants of Tables C1-C12 in pre-emergence treatment [16]: very good herbicidal activity
